According to publication PMC10853860 (2023):

Experiments:
[1] = system: T. ilyis ldcC SAM-I variant riboswitch WT (TiltrxWT) (RNA, riboswitch) AAAAUAUCUCUUAUUAAUAGCCGUUGAGACGAGGGGUCGAAGAUACGGUGGCAAACCAAUCAAUCCAAUUUUUUUGCAGUACGGAUUGAUAUUGGGUGCCCAACCUGAGCGUAGGAUUAUCCAAGUCCUAUGAGCAAUAAGAGGAAAAGCAGCUGAUAGAUAUCGAAGCUUUCCUUUGGUUGGAGAGCUUUUUUUAUGCCCAUUUUUUAUAUCAAAGGGGGAAAUCUAU; assay: single-round transcription termination; conditions: 100 mM KCl, 2 mM MgCl2, 20 mM Tris-HCl pH 8.0, 37 °C; for binding: 1 mM tested, no termination increase; for T50: E. coli RNA polymerase, apparent
[2] = system: 135 metK RNA (RNA, riboswitch) GGUCUAUCUUAUUAAUAGCCGUUGAGACGAGGGGUCGAAGAAGCGGUGGCAAACCAGUCCAAAUCAAUGAUUUGGAUAUGGGGCCCAACCUGAGCGCAGAGCUUUUCUGUUCUGUGAACAAUAAGAGGAUAAGCAG; assay: in-line probing; conditions: 100 mM KCl, 2 mM MgCl2, 50 mM Tris-HCl pH 7.5, ~20 °C, apparent
[3] = system: T. ilyis hypo consensus SAM-I riboswitch (TilconsSAMItrx) (RNA, riboswitch) AAAAUAACUUCUUUAUCACGAGAGAUUGAGGGACUGGCCCGAUGACAUCUCAGCAACCGACCCACGCGUAACGCGGCGGCACGGUGCUAAAUCCUGCAGAGUAAUCUGAGAGAUAAGAAGAGCAAAUCGACAUUCCCGACUCUUCUUGUUAUAAGAAGGGUUUUUUGUUUUCAAAAAAACAAUCUGGAGGGAAAAACG; assay: single-round transcription termination; conditions: 100 mM KCl, 2 mM MgCl2, 20 mM Tris-HCl pH 8.0, 37 °C
[4] = system: T. ilyis ldcC M9 (TiltrxshortP1) (RNA, riboswitch) AAUUAAUAGCCGUUGAGACGAGGGGUCGAAGAUACGGUGGCAAACCAAUCAAUCCAAUUUUUUUGCAGUACGGAUUGAUAUUGGGUGCCCAACCUGAGCGUAGGAUUAUCCAAGUCCUAUGAGCAAUAAGAGGAAAAGCAGCUGAUAGAUAUCGAAGCUUUCCUUUGGUUGGAGAGCUUUUUUUAUGCCCAUUUUUUAUAUCAAAGGGGGAAAUCUAU; assay: single-round transcription termination; conditions: 100 mM KCl, 2 mM MgCl2; 20 mM Tris-HCl pH 8.0, 37 °C; no termination response
[5] = system: 135 metK M14 (RNA, riboswitch) GGUCUAUCUUAUUAAAAGCCGUUGAGACGAGGGGUCGAAGAAGCGGUGGCAUACCAGUCCAAAUCAAUGAUUUGGAUAUGGGGCCAAACCUGAGCGCAGAGCUUUUCUGUUCUGUGAACAAUAAGAGGAUAAGCAG; assay: in-line probing; conditions: 100 mM KCl, 2 mM MgCl2; 50 mM Tris-HCl pH 7.5, ~20 °C; 1 and 5.6 mM tested
[6] = system: (RNA, riboswitch) AAAAUAUCUCUUAUUAAUAGCCGUUGAGACGAGGGGUCGAAGAUACGGUGGCAAACCAAUCAAUCCAAUUUUUUUGCAGUACGGAUUGAUAUUGGGUGCCCAACCUGAGCGUAGGAUUAUCCAAGUCCUAUGAGCAAUAAGAGGAAAAGCAGCUGAUAGAUAUCGAAGCUUUCCUUUGGUUGGAGAGCUUUUUUUAUGCCCAUUUUUUAUAUCAAAGGGGGAAAUCUAU; assay: single-round transcription termination; conditions: 100 mM KCl, 2 mM MgCl2; 20 mM Tris-HCl pH 8.0, 37 °C; 1 mM tested; no termination increase

CCCNCCCN
binding [1]: no

CCNCCCN
binding [1]: no

CNCCCN
binding [1]: no

CC(=O)NCCCNCCCCNCCCN
KD ([2]; Hill 1.5): ~ 860 μM

NCCCN
binding [1]: no

C[S+](CC[C@H](N)C(=O)O)C[C@H]1O[C@@H](n2cnc3c(N)ncnc32)[C@H](O)[C@@H]1O (some centres unmarked)
binding [1]: no
binding ([3]; 1 mM SAM, strong termination): yes

NCCCCNCCCN
T50 [1]: 214 µM
KD ([2]; Hill 1.4, replicate ~730 μM): ~ 670 μM
binding [4]: no
binding ([3]; 1 mM tested, no termination response): no
binding [5]: weak

CC(=O)NCCCNCCCCN
binding [1]: no

NCCCNCCCCNCCCN
T50 [1]: 79 µM
KD ([2]; Hill 1.4): ~ 340 μM

NCCCSC[C@H]1O[C@@H](n2cnc3c(N)ncnc32)[C@H](O)[C@@H]1O
binding [6]: no

CSC[C@H]1O[C@@H](n2cnc3c(N)ncnc32)[C@H](O)[C@@H]1O
binding [1]: no
